Measured values from publication PMC8999125, “In Vitro and In Vivo Effects of the Urokinase Plasminogen Activator Inhibitor WX-340 on Anaplastic Thyroid Cancer Cell Lines” (International Journal of Molecular Sciences, 2022).

Biological target: T1, urokinase-type plasminogen activator (uPA) (Homo sapiens, UniProt P00749)
T1 construct: gene PLAU; uPA purified from human urine
Test: colorimetric uPA activity assay (CHEMICON kit), dose-response […] to […]
Type: biochemical

IC50: 0.09 µM
Substance: WX-340
